Converted amounts (≈) assume the structure as drawn. Where two headings read alike, the source gives them in different places.
Legend:
K. pneumoniae MGH78578 = assay: MIC determination according to CLSI guidelines; assay type: cell-based; settings: Klebsiella pneumoniae, drug alone
Experimental: (§1) Bacterial strains grown on MH agar plates were resuspended in sterilized 0.85% sodium chloride solution. […] All tested culture media were finally cultured at 37° C. for 16 hours. E. coli ATCC25922 and K. pneumoniae MGH78578 in Table 1 were used as reference control bacteria.
(§2) See Table 2 and Table 2-1 below for details.

E. coli ATCC25922 = assay: MIC determination according to CLSI guidelines; assay type: cell-based; settings: Escherichia coli, drug alone
Experimental: as §1, §2

CR-HvKP 1 [1] = settings: for Viability (%): CR-HvKP 1 infected ICR mice; for mortality rate of mice: oral gavage every 12 hours
Experimental: The ICR mice were injected with 3×10^7 CFU of CR-HvKP 1 intraperitoneally to create sepsis infection models.

HepG2 cells = assay: MTT experiment; settings: MTT assay
CR-HvKP 1 [2] = assay: microbe, parasite or virus in culture; assay type: cell-based, K. pneumoniae; settings: Klebsiella pneumoniae, read-out: MIC after serial passage with incremental drug concentrations
Experimental: The principle of this experiment is that sub-inhibitory concentrations of antibiotics will induce drug-resistant mutations of bacteria.
Materials and methods: CR-HvKP 1 was selected as the representative strain. […] After 24 hours of culture, the culture possibly containing drug-resistant mutant bacteria was diluted 1:100 into fresh LB medium containing 2-fold concentration of drugs. This continuous transfer was repeated for six generations, i.e. the experiment was conducted for six days (the concentration on the second day was twice that on the first day, with daily increment).

14WZ-44 = assay: MIC determination according to CLSI guidelines; assay type: cell-based, K. pneumoniae; settings: Klebsiella pneumoniae; 14WZ-44 (CRKP); drug alone
Experimental: as §1, §2

16ZR-58 = assay: MIC determination according to CLSI guidelines; assay type: cell-based, K. pneumoniae; settings: Klebsiella pneumoniae, drug alone
Experimental: as §1, §2

CR-HvKP 3 = assay: MIC determination according to CLSI guidelines; assay type: cell-based, K. pneumoniae; settings: Klebsiella pneumoniae, drug alone
Experimental: as §1, §2

14WZ-51 = assay: MIC determination according to CLSI guidelines; assay type: cell-based, K. pneumoniae; settings: Klebsiella pneumoniae, drug alone
Experimental: as §1, §2

CR-HvKP 1 [3] = assay: MIC determination according to CLSI guidelines; assay type: cell-based, K. pneumoniae; settings: Klebsiella pneumoniae, drug alone
Experimental: as §1, §2

17ZR-63 = assay: MIC determination according to CLSI guidelines; assay type: cell-based, K. pneumoniae; settings: Klebsiella pneumoniae, drug alone
Experimental: as §1, §2

CR-HvKP 2 = assay: MIC determination according to CLSI guidelines; assay type: cell-based, K. pneumoniae; settings: Klebsiella pneumoniae, drug alone
Experimental: as §1, §2

14WZ-43 = assay: MIC determination according to CLSI guidelines; assay type: cell-based, K. pneumoniae; settings: Klebsiella pneumoniae, drug alone
Experimental: as §1, §2

16WZ-134 = assay: MIC determination according to CLSI guidelines; assay type: cell-based, K. pneumoniae; settings: Klebsiella pneumoniae, drug alone
Experimental: as §1, §2

17ZR-61 = assay: MIC determination according to CLSI guidelines; assay type: cell-based, K. pneumoniae; settings: Klebsiella pneumoniae, drug alone
Experimental: as §1, §2

16ZR-93 = assay: MIC determination according to CLSI guidelines; assay type: cell-based, K. pneumoniae; settings: Klebsiella pneumoniae, drug alone
Experimental: as §1, §2

16ZR-10 = assay: MIC determination according to CLSI guidelines; assay type: cell-based, K. pneumoniae; settings: Klebsiella pneumoniae, drug alone
Experimental: as §1, §2

15WZ-88 = assay: MIC determination according to CLSI guidelines; assay type: cell-based, K. pneumoniae; settings: Klebsiella pneumoniae, drug alone
Experimental: as §1, §2

16ZR-33 = assay: MIC determination according to CLSI guidelines; assay type: cell-based, K. pneumoniae; settings: Klebsiella pneumoniae, drug alone
Experimental: as §1, §2

17ZR-31 = assay: MIC determination according to CLSI guidelines; assay type: cell-based, K. pneumoniae; settings: Klebsiella pneumoniae, drug alone
Experimental: as §1, §2

CR-HvKP 5 = assay: MIC determination according to CLSI guidelines; assay type: cell-based, K. pneumoniae; settings: Klebsiella pneumoniae, drug alone
Experimental: as §1, §2

15WZ-68 = assay: MIC determination according to CLSI guidelines; assay type: cell-based, K. pneumoniae; settings: Klebsiella pneumoniae, drug alone
Experimental: as §1, §2

17ZR-75 = assay: MIC determination according to CLSI guidelines; assay type: cell-based, K. pneumoniae; settings: Klebsiella pneumoniae, drug alone
Experimental: as §1, §2

14WZ-45 = assay: MIC determination according to CLSI guidelines; assay type: cell-based, K. pneumoniae; settings: Klebsiella pneumoniae, drug alone
Experimental: as §1, §2

14WZ-52 = assay: MIC determination according to CLSI guidelines; assay type: cell-based, K. pneumoniae; settings: Klebsiella pneumoniae, drug alone
Experimental: as §1, §2

rmpA2 = assay: Virulence gene expression by qRT-PCR; assay type: cell-based, K. pneumoniae; settings: drug alone
[4] = target: T1, K. pneumoniae RNA polymerase (Klebsiella pneumoniae subsp. pneumoniae, UniProt A6TGP0+A6TGP1); assay: ITC assay; assay type: binding; settings: 25° C.
T1 construct: made in house; host or cells: E. coli BL21(DE3)
Source text: We successfully co-expressed the subunits of K. pneumoniae RNAp to prepare the required core enzyme by a dual plasmids expression system, pACYC-Duet and pET-Duet. The method is briefly described as follows:
Recombinant plasmids containing different subunits of RNAP (rpoA, rpoB, rpoC, rpoD, rpoZ) were constructed using the Gibson assembly method. First, all the required fragments were obtained by PCR amplification from the K. pneumoniae MGH78578 genome and two Duet plasmids, respectively. All fragments, Gibson Assembly Master Mix (NEB, #E2611S) and deionized water were then mixed and incubated at 50° C. for 60 minutes. The recombinant plasmids were transformed into E. coli DH5α by heat shock method. After verification via sequencing, the recombinant plasmids were then transformed into E. coli BL21(DE3). Plasmids pACYC Duet rpoA-rpoZ-Amp (encoding […]) and pET Duet rpoB-rpoC-Kana (encoding β and β′ subunits) were transformed together into E. coli BL21 to prepare RNA core polymerase by in vivo assembly. The σ factor σ subunit was obtained by overexpression of E. coli BL21 containing the plasmid pET-Duet-rpoD-Kana alone. The recombinant bacteria were first cultured in LB agar containing 50 μg/mL of kanamycin and 100 μg/mL of ampicillin and then inoculated into LB broth containing the same concentration of antibiotics at 37° C., 250 rpm. After the bacterial turbidity reached an OD600 of 0.6, 0.5 mM IPTG was added and cultured at 16° C., 200 rpm for 16 hours. Cells were harvested by centrifugation (5000 rpm, 20 minutes at 4° C.). The protein was then purified by affinity chromatography. To further obtain bacterial RNAp holoenzyme, RNAp core enzyme was incubated with sigma subunits at a molar ratio of 1:1 at 37° C. for 15 minutes and then used for subsequent ITC assays.
The test was performed at 25° C. using a Malvern MicroCal PEAQ-ITC automatic ultrasensitive isothermal titration calorimeter (MicroCal (Malvern Instruments), Malvern, UK). […] The solution was stirred at 750 rpm. MicroCal PEAQ-ITC analysis software was used to fit the data to a one site binding model.

K. pneumoniae = assay: Screening of FDA-approved drug library; assay type: cell-based; settings: drug library screen
E. coli = assay: Screening of FDA-approved drug library; assay type: cell-based; settings: drug library screen
P. aeruginosa = assay: Screening of FDA-approved drug library; assay type: cell-based; settings: drug library screen
CR-HvKP 1 [5] = settings: 20 μg/mL zidovudine
CR-HvKP 1 [6] = assay: Mucoviscosity assay; assay type: cell-based, K. pneumoniae; settings: drug alone, OD600 of supernatant
Experimental: 2. Mucoviscosity assay: The overnight culture of CR-HvKP 1 was re-inoculated into fresh LB broth to produce a bacterial broth with an OD600 of 0.3. Different drugs were then added and cultured with shaking at 37° C. for 6 hours. The culture was then diluted to an OD600 of 1.0 and centrifuged at 1,000×g for 2 minutes before the supernatant was obtained for OD600 measurement.

CR-HvKP 1 [7] = assay: String test on sheep blood agar; assay type: cell-based, K. pneumoniae; settings: drug alone
Experimental: 1. A series of tests were performed according to the following process. CR-HvKP 1 was inoculated onto the agar plate containing 5% sheep blood and different drugs and cultured overnight at 37° C. The series test refers to a test in which viscous strings greater than 5 mm in length are formed when a single colony is stretched with a standard bacteriological inoculating loop, which can be considered a virulent strain of a high-viscosity phenotype.

T1 sequence (A6TGP1 whole entry): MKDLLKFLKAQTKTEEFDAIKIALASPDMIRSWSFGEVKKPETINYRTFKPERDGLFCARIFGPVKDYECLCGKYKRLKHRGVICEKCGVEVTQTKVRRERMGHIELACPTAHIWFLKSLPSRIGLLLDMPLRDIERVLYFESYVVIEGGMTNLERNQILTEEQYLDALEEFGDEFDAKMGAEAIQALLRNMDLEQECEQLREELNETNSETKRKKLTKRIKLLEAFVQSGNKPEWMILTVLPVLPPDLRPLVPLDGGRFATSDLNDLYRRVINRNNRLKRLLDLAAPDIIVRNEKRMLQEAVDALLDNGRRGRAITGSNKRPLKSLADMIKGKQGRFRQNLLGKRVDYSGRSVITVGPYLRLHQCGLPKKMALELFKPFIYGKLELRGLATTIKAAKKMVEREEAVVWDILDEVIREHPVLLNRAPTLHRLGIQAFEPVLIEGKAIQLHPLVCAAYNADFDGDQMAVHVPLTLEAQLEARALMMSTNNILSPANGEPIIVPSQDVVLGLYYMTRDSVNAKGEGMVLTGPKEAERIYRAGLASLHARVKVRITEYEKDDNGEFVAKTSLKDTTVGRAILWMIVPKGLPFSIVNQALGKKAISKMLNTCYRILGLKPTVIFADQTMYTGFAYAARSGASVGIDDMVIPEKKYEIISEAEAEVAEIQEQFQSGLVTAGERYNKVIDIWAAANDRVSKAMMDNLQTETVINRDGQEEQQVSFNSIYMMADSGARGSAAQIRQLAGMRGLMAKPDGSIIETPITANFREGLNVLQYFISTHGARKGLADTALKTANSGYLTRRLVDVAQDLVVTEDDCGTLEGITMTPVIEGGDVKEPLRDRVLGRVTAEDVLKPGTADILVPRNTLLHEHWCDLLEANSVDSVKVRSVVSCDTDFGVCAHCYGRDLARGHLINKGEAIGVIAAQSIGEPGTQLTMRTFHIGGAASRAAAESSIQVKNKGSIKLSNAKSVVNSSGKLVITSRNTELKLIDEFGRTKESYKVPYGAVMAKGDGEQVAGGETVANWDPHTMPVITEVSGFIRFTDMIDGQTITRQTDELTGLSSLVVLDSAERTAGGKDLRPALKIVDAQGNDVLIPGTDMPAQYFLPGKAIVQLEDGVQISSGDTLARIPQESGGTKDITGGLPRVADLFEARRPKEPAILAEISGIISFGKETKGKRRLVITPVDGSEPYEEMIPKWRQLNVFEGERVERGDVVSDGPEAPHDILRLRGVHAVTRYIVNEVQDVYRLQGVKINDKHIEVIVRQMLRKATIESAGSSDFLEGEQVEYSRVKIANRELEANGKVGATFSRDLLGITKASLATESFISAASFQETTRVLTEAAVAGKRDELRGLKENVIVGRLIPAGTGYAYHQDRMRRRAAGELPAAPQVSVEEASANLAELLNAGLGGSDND
T1 sequence (A6TGP0 whole entry): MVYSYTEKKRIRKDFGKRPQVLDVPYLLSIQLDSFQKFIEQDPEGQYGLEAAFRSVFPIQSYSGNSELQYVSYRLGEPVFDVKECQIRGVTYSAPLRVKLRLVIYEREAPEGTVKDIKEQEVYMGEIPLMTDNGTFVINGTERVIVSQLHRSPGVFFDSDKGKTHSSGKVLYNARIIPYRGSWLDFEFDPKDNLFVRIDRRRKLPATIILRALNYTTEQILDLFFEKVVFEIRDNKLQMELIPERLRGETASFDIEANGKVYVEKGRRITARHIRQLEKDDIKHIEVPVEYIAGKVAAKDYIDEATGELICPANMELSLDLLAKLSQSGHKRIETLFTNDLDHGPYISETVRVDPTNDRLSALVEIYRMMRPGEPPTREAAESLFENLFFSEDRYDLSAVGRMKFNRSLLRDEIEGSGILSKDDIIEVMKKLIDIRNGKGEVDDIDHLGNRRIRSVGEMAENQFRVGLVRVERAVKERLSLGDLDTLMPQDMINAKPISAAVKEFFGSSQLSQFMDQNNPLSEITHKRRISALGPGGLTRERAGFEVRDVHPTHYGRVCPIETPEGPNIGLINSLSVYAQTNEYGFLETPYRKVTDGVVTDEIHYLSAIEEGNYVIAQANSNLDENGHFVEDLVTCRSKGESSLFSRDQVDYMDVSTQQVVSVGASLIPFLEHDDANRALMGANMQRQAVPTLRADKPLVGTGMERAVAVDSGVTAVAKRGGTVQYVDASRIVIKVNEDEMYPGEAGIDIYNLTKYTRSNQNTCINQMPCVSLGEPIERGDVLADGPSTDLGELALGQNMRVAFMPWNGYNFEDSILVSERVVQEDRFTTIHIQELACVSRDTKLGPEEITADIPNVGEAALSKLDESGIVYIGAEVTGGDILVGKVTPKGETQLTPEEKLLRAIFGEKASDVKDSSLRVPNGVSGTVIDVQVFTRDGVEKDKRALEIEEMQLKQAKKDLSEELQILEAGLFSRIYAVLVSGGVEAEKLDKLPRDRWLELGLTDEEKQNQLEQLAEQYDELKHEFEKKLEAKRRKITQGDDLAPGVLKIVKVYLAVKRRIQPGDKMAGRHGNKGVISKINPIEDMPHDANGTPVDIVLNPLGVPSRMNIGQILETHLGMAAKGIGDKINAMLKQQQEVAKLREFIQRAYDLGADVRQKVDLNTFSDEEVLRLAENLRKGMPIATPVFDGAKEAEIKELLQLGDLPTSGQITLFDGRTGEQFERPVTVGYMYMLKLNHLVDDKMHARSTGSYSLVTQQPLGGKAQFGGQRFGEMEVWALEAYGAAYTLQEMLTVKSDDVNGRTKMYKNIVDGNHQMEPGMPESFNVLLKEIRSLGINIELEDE
T1 sequence (A6TEU8 whole entry, further chain): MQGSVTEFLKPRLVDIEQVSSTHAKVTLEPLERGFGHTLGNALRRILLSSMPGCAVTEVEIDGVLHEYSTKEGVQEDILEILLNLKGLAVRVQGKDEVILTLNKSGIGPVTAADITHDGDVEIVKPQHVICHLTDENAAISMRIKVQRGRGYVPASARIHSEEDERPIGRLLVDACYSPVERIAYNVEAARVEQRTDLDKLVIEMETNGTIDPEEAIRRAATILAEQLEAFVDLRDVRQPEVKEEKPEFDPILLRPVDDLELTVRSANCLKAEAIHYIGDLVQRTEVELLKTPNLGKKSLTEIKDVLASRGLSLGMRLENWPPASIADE
Experimental for red blood cells (RBCs): In-vitro method: Hemolysis experiment: The blood from fresh ICR mice was collected by cardiac blood withdrawal, preserved in K2-EDTA tubes (BD Vacultainer® K2 EDTA, Becton-Dickinson) and temporarily stored at 4° C. The whole blood sample was centrifuged (500 g, 10 minutes) to remove plasma, and then washed three times with PBS buffer. After the last washing, 100 μL of the remaining red blood cells (RBCs) were carefully aspirated from the bottom and diluted with 4.9 mL PBS buffer to prepare a 2% blood solution. […] 50 μL of diluted RBCs were mixed with 100 μL of milli-Q H20 (100% hemolysis) or 100 μL of drug-free PBS as positive and negative controls, respectively. It should be noted that rifampicin itself was red, so the absorbance of PBS with different concentrations of the drug was used as background correction in the calculation. The mixture was mixed gently and incubated at 37° C. for 30 minutes. 80 μL of supernatant was obtained by centrifugation at 2000×g for 6 minutes, and the optical density of the supernatant at 541 nm was measured with a microplate reader (SpectraMax 190, Moleclar Devices).

`CO[C@H]1/C=C/O[C@@]2(C)Oc3c(C)c(O)c4c(O)c(c(/C=N/N5CCN(C)CC5)c(O)c4c3C2=O)NC(=O)/C(C)=C\C=C\[C@H](C)[C@H](O)[C@@H](C)[C@@H](O)[C@@H](C)[C@H](OC(C)=O)[C@@H]1C` [rifampicin] was tested, and the MIC (K. pneumoniae MGH78578) was 32 µg/mL (≈ 38.9 µM), the MIC (E. coli ATCC25922) was 8 µg/mL (≈ 9.72 µM) and the “Viability (%)” value (CR-HvKP 1 [1]; ZDV 0 mg/kg + RIF 8 mg/kg) was 30%. The “mortality rate of mice” value (CR-HvKP 1 [1]; rifampicin 8 mg/kg only, in 72 hours) was 66%, the HepG2 cell lysis (HepG2 cells) was “low level” and the MIC (CR-HvKP 1 [2]) was 4100 µg/mL (≈ 4980 µM). For the same compound, the MIC (14WZ-44) was 32 µg/mL (≈ 38.9 µM), the MIC (16ZR-58) was 32 µg/mL (≈ 38.9 µM) and the MIC (CR-HvKP 3) was 32 µg/mL (≈ 38.9 µM). For the same compound, the MIC (14WZ-51) was 32 µg/mL (≈ 38.9 µM), the MIC (CR-HvKP 1 [3]) was 32 µg/mL (≈ 38.9 µM) and the MIC (17ZR-63) was 32 µg/mL (≈ 38.9 µM). For the same compound, the MIC (CR-HvKP 2) was 32 µg/mL (≈ 38.9 µM), the MIC (14WZ-43) was 32 µg/mL (≈ 38.9 µM) and the MIC (16WZ-134) was 32 µg/mL (≈ 38.9 µM). The MIC (17ZR-61) was 32 µg/mL (≈ 38.9 µM), the MIC (16ZR-93) was over 64 µg/mL and the MIC (16ZR-10) was 32 µg/mL (≈ 38.9 µM). For the same compound, the MIC (15WZ-88) was 16 µg/mL (≈ 19.4 µM), the MIC (16ZR-33) was 16 µg/mL (≈ 19.4 µM) and the MIC (17ZR-31) was 32 µg/mL (≈ 38.9 µM). It also gave an MIC (CR-HvKP 5) of 32 µg/mL (≈ 38.9 µM), an MIC (15WZ-68) of 32 µg/mL (≈ 38.9 µM) and an MIC (17ZR-75) of 64 µg/mL (≈ 77.8 µM). For the same compound, the MIC (14WZ-45) was 16 µg/mL (≈ 19.4 µM), the MIC (14WZ-52) was 32 µg/mL (≈ 38.9 µM) and the hemolysis (red blood cells (RBCs)) was “low level”.
With `Cc1cn([C@H]2C[C@H](N=[N+]=[N-])[C@@H](CO)O2)c(=O)[nH]c1=O` [zidovudine] the “expression of bacterial virulence factor rmpA2” value (rmpA2) was “inhibition”, the “enthalpy (ΔH)” value [4] was -80.1 ± 124 kcal/mol and the “reaction stoichiometry (N sites)” value [4] was 0.239±0.273. The Kd ([4]; one site binding model) was 7.8 µM, the antibacterial effect (K. pneumoniae) was “exhibited antibacterial effect” and the MIC (K. pneumoniae MGH78578) was 5 µg/mL (≈ 18.7 µM). The MIC (E. coli ATCC25922) was 0.625 µg/mL (≈ 2.34 µM), the antibacterial effect (E. coli) was “exhibited antibacterial effect” and the antibacterial effect (P. aeruginosa) was “exhibited antibacterial effect”. The “Viability (%)” value (CR-HvKP 1 [1]; ZDV 10 mg/kg + RIF 0 mg/kg) was 0%, the “mortality rate of mice” value (CR-HvKP 1 [1]; zidovudine 10 mg/kg only, in 36 hours) was 100% and the “population size of CR-HvKP 1 in time-kill curve” value (CR-HvKP 1 [5]) was “reduced in the first 4 hours and then re-grew to reach the same size as no treatment control at 24 hours”. The HepG2 cell lysis (HepG2 cells) was “low level”, the MIC (CR-HvKP 1 [2]) was 1280 µg/mL (≈ 4790 µM) and the MIC (14WZ-44) was 2.5 µg/mL (≈ 9.35 µM). It also gave an MIC (16ZR-58) of 2.5 µg/mL (≈ 9.35 µM), an MIC (CR-HvKP 3) of 2.5 µg/mL (≈ 9.35 µM) and an MIC (14WZ-51) of 2.5 µg/mL (≈ 9.35 µM). It also gave an MIC (CR-HvKP 1 [3]) of 2.5 µg/mL (≈ 9.35 µM), an MIC (17ZR-63) of 1.25 µg/mL (≈ 4.68 µM) and an MIC (CR-HvKP 2) of 2.5 µg/mL (≈ 9.35 µM). The MIC (14WZ-43) was 2.5 µg/mL (≈ 9.35 µM), the MIC (16WZ-134) was over 20 µg/mL and the MIC (17ZR-61) was 1.25 µg/mL (≈ 4.68 µM). The MIC (16ZR-93) was over 20 µg/mL, the MIC (16ZR-10) was 0.625 µg/mL (≈ 2.34 µM) and the MIC (15WZ-88) was 2.5 µg/mL (≈ 9.35 µM). For the same compound, the MIC (16ZR-33) was 5 µg/mL (≈ 18.7 µM), the MIC (17ZR-31) was 2.5 µg/mL (≈ 9.35 µM) and the MIC (CR-HvKP 5) was 5 µg/mL (≈ 18.7 µM). For the same compound, the MIC (15WZ-68) was 2.5 µg/mL (≈ 9.35 µM), the MIC (17ZR-75) was 5 µg/mL (≈ 18.7 µM) and the MIC (14WZ-45) was 2.5 µg/mL (≈ 9.35 µM). For the same compound, the MIC (14WZ-52) was 1.25 µg/mL (≈ 4.68 µM), the hypermucoviscosity (CR-HvKP 1 [6]) was “reduce” and the string length (CR-HvKP 1 [7]) was “reduce”.

Reference: US12016874B2, “Methods and compositions for treating carbapenem-resistant klebsiella pneumoniae infections” (City University of Hong Kong, priority 2022, dated 2024)
